The subject of one assay is lamin A. In words: Taqman quantitative real-time PCR of lamin A mRNA in coronary artery endothelial cells of aging mice. Type of assay: in vivo. As to conditions: 56-week-old mice treated with EGT every day, compared to without EGT treated; FIG. 1. The protocol:
(§1) 18 […]/6 male mice aged about 8 weeks, were randomly assigned to three study groups (GA, GB, GC). The total experimental time was 56 weeks, and the control group was consisted of 12 animals, and all of the animals were maintained in an animal facility room under controlled environmental conditions (22±1° C., 12 h-light/12 h dark cycle, free access to food and water). All procedures were carried out in accordance with institutional policies on experimental animal handling. Treatment details of the individual study groups were: Group A (GA): euthanized at the age of 10 weeks; Group B (GB): euthanized at the age of 56 weeks without EGT treated; Group C (GC): euthanized at the age of 56 weeks with EGT treated every day. For all the euthanized mice, formalin-fixed paraffin embedded 3 μm sections were prepared from the tissues of coronary artery, and were snap-frozen and stored at -80° C. Taqman quantitative real-time PCR was used for detection of progerin mRNA. Messenger RNA was extracted using RNeasy Mini Kit Plus (Qiagen, Valencia, CA). The Taqman probe was as described by Rodriguez et al. (Rodriguez, S., et al., Increased expression of the Hutchinson Gilford progeria syndrome truncated lamin A transcript during cell aging. 2009. 17(7): p. 928-937). The forward primer was [NT] ID NO: 1), and the reverse primer was [NT] ID NO: 2).

Assay [1] has as its system vascular and intracellular adhesion molecules in endothelial cells. To be noted: Anticoli et al. 2010; cited from earlier work.
For a further assay, the system named is lamin C. Briefly: Taqman quantitative real-time PCR of lamin C mRNA in coronary artery endothelial cells of aging mice. It is filed as in vivo. To be noted: 56-week-old mice treated with EGT every day, compared to without EGT treated; FIG. 1.
For assay [2], the system named is pro-inflammatory cytokines IL-1α, IL-1β, IL-6, and TNF-α. Briefly: Quantification of pro-inflammatory cytokines in serum of aging mice using ELISA Array kit. To be noted: serum of 56-week-old mice, EGT compared to without EGT treatment, FIG. 2. It is filed as in vivo. The protocol: 18 […]/6 male mice aged about 8 weeks, were randomly assigned to three study groups (GA, GB, GC). The total experimental time was 56 weeks, and the control group was consisted of 12 animals, and all of the animals were maintained in an animal facility room under controlled environmental conditions (22±1° C., 12 h-light/12 h dark cycle, free access to food and water). All procedures were carried out in accordance with institutional policies on experimental animal handling. Treatment details of the individual study groups were: Group A (GA): euthanized at the age of 10 weeks; Group B (GB): euthanized at the age of 56 weeks without EGT treated; Group C (GC): euthanized at the age of 56 weeks with EGT treated every day.

The next assay deals with progerin. In words: Taqman quantitative real-time PCR of progerin mRNA in coronary artery endothelial cells of aging mice. As to conditions: 56-week-old mice treated with EGT every day, compared to without EGT treated; FIG. 1. Type of assay: in vivo. How it is done: as §1
Background: Quantitative PCR measures a nucleic acid by following its amplification.

For the compound `C[N+](C)(C)[C@@H](Cc1c[nH]c(=S)[nH]1)C(=O)[O-]` [EGT, Ergothioneine], in the assay on lamin A, the “mRNA of lamin A in coronary artery endothelial cells” value is “decrease”. Further, the “IL-1β-induced expression of vascular and intracellular adhesion molecules” value in assay [1] was “inhibit”. Further, the “mRNA of lamin C in coronary artery endothelial cells” value in the assay with lamin C was “decrease”. The “pro-inflammatory cytokines (IL-1α, IL-1β, IL-6, TNF-α)” value in assay [2] is reported as “obvious decrease”. The “mRNA expression of progerin in coronary artery endothelial cells” value with progerin is “obvious decrease”.
